Experimental data from ChEMBL document CHEMBL1156950, “Synthesis and biological evaluation of 4-anilinoquinolines as potent inhibitors of epidermal growth factor receptor” (J Med Chem, 2010).

Key:
cells [1] = details: Mus musculus, BaF3, 96 h
[2] = molecular target: Receptor-interacting serine/threonine-protein kinase 2 (Homo sapiens) (UniProt O43353); assay: Inhibition of RIPK2 at 10 uM assessed as residual activity by [33P]ATP radioactive filter binding assay relative to control
[3] = molecular target: Receptor tyrosine-protein kinase erbB-4 (Homo sapiens) (UniProt Q15303); assay: Inhibition of HER4 at 10 uM assessed as residual activity by [33P]ATP radioactive filter binding assay relative to control
[4] = molecular target: Serine/threonine-protein kinase N2 (Homo sapiens) (UniProt Q16513); assay: Inhibition of PRK2 at 10 uM assessed as residual activity by [33P]ATP radioactive filter binding assay relative to control
[5] = molecular target: Glycogen synthase kinase-3 beta (Homo sapiens) (UniProt P49841); assay: Inhibition of GSK3-beta at 10 uM assessed as residual activity by [33P]ATP radioactive filter binding assay relative to control
Chain of Glycogen synthase kinase-3 beta (Homo sapiens) (P49841 whole entry, looked up): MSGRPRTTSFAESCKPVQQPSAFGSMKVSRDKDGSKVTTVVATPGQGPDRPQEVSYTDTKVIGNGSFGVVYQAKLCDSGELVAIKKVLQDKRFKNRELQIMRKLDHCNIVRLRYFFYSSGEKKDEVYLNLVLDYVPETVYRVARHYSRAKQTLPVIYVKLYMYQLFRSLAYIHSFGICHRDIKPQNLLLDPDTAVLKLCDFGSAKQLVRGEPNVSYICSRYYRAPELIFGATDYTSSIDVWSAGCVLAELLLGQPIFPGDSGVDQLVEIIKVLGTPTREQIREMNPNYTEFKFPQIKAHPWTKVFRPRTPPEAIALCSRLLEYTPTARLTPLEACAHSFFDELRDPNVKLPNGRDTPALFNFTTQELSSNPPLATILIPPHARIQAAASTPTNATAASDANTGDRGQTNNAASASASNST

[6] = molecular target: Dual specificity tyrosine-phosphorylation-regulated kinase 2 (Homo sapiens) (UniProt Q92630); assay: Inhibition of DYRK2 at 10 uM assessed as residual activity by [33P]ATP radioactive filter binding assay relative to control
[7] = molecular target: Serine/threonine-protein kinase Chk1 (Homo sapiens) (UniProt O14757); assay: Inhibition of CHK1 at 10 uM assessed as residual activity by [33P]ATP radioactive filter binding assay relative to control
Chain of Serine/threonine-protein kinase Chk1 (Homo sapiens) (O14757 whole entry): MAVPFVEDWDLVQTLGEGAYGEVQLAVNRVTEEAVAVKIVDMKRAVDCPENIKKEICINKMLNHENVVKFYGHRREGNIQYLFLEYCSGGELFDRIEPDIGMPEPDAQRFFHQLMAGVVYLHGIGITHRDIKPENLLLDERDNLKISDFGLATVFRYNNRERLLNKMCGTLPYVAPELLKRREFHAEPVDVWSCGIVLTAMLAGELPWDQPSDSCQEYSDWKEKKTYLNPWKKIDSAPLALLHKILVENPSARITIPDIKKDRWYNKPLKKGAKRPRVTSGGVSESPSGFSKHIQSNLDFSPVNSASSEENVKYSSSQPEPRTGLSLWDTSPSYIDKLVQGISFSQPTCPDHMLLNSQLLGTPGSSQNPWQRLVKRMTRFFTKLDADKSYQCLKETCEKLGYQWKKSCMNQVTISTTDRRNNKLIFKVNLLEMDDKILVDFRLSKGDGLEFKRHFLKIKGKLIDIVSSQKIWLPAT

[8] = molecular target: Serine/threonine-protein kinase BRSK2 (Homo sapiens) (UniProt Q8IWQ3); assay: Inhibition of BRSK2 at 10 uM assessed as residual activity by [33P]ATP radioactive filter binding assay relative to control
Chain of Serine/threonine-protein kinase BRSK2 (Homo sapiens) (Q8IWQ3 whole entry): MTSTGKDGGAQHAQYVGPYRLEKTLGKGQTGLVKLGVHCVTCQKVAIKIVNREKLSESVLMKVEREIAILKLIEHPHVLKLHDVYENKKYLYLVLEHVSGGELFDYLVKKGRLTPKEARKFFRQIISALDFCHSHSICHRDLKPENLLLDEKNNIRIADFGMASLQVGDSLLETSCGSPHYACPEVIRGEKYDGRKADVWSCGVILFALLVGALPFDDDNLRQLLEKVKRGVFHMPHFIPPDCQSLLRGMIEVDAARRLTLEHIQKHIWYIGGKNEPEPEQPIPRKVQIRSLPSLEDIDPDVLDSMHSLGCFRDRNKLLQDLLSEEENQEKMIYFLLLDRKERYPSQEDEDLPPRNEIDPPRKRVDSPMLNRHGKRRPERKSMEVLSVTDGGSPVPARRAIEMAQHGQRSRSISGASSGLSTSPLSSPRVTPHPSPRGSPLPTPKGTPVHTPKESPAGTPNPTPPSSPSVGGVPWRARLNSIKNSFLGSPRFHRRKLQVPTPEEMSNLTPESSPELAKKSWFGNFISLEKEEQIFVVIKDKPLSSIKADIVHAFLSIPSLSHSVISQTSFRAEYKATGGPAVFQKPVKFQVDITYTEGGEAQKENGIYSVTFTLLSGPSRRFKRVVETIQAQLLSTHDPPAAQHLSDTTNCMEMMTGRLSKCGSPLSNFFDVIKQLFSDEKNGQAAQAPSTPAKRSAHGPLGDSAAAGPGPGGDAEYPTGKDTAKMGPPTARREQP

[9] = molecular target: Mitogen-activated protein kinase 10 (Homo sapiens) (UniProt P53779); assay: Inhibition of JNK3 at 10 uM assessed as residual activity by [33P]ATP radioactive filter binding assay relative to control
Chain of Mitogen-activated protein kinase 10 (Homo sapiens) (P53779 whole entry): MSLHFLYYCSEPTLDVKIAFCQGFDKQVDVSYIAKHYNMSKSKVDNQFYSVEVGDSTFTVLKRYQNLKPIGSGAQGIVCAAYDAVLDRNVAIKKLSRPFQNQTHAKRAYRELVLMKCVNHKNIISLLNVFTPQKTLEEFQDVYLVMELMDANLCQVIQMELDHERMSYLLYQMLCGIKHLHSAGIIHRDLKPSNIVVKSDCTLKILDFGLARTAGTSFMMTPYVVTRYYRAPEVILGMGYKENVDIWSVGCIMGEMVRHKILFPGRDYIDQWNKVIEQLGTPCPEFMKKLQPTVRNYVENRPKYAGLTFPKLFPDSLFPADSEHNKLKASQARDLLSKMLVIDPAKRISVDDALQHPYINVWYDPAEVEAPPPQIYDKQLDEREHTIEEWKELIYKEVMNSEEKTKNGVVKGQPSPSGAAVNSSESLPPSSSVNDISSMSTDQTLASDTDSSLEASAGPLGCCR

[10] = molecular target: Ephrin type-A receptor 2 (Homo sapiens) (UniProt P29317); assay: Inhibition of EPHA2 at 10 uM assessed as residual activity by [33P]ATP radioactive filter binding assay relative to control
[11] = molecular target: Mitogen-activated protein kinase kinase kinase 9 (Homo sapiens) (UniProt P80192); assay: Inhibition of MLK1 at 10 uM assessed as residual activity by [33P]ATP radioactive filter binding assay relative to control
[12] = molecular target: Ribosomal protein S6 kinase alpha-3 (Homo sapiens) (UniProt P51812); assay: Inhibition of RSK2 at 10 uM assessed as residual activity by [33P]ATP radioactive filter binding assay relative to control
[13] = molecular target: Dual specificity protein kinase TTK (Homo sapiens) (UniProt P33981); assay: Inhibition of TTK at 10 uM assessed as residual activity by [33P]ATP radioactive filter binding assay relative to control
Chain of Dual specificity protein kinase TTK (Homo sapiens) (P33981 whole entry): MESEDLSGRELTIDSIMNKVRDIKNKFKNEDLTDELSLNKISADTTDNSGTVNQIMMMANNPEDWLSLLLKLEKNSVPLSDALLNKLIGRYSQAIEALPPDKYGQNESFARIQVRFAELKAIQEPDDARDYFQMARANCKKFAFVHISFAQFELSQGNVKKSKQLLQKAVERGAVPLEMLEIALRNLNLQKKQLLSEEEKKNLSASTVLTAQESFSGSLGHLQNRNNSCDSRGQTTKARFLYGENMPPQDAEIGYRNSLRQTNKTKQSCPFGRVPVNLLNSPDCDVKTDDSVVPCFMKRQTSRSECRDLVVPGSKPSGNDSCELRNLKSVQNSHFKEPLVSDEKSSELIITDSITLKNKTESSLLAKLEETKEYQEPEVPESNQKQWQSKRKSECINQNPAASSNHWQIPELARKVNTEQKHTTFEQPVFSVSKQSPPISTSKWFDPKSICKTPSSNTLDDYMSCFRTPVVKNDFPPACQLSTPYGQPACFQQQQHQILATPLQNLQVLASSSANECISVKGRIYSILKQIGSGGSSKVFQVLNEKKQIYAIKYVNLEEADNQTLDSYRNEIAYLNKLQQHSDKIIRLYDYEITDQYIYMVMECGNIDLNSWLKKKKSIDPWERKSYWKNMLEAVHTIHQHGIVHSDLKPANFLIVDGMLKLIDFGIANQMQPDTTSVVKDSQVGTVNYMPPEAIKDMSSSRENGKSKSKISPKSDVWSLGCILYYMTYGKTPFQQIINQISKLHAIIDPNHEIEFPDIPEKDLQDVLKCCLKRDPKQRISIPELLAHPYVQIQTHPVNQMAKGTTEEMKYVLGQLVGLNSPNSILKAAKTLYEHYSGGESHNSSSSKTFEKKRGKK

[14] = molecular target: Interleukin-1 receptor-associated kinase 4 (Homo sapiens) (UniProt Q9NWZ3); assay: Inhibition of IRAK4 at 10 uM assessed as residual activity by [33P]ATP radioactive filter binding assay relative to control
[15] = molecular target: Mitogen-activated protein kinase 14 (Homo sapiens) (UniProt Q16539); assay: Inhibition of p38alpha at 10 uM assessed as residual activity by [33P]ATP radioactive filter binding assay relative to control
Chain of Mitogen-activated protein kinase 14 (Homo sapiens) (Q16539 whole entry): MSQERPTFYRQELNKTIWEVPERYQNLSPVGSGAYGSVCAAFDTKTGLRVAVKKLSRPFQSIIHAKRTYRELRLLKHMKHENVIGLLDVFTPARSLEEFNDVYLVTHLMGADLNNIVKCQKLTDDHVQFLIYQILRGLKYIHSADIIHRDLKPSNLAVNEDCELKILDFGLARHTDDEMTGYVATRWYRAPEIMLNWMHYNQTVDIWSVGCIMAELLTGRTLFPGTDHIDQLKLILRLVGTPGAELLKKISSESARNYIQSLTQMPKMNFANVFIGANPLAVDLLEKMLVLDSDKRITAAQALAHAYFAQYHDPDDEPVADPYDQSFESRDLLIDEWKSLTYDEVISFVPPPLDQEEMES

[16] = molecular target: Serine/threonine-protein kinase PAK 6 (Homo sapiens) (UniProt Q9NQU5); assay: Inhibition of PAK6 at 10 uM assessed as residual activity by [33P]ATP radioactive filter binding assay relative to control
[17] = Inhibition of VEGFR at 10 uM assessed as residual activity by [33P]ATP radioactive filter binding assay relative to control
[18] = molecular target: Mitogen-activated protein kinase 3 (Homo sapiens) (UniProt P27361); assay: Inhibition of ERK1 at 10 uM assessed as residual activity by [33P]ATP radioactive filter binding assay relative to control
[19] = molecular target: MAP/microtubule affinity-regulating kinase 4 (Homo sapiens) (UniProt Q96L34); assay: Inhibition of MARK4 at 10 uM assessed as residual activity by [33P]ATP radioactive filter binding assay relative to control
[20] = molecular target: Homeodomain-interacting protein kinase 1 (Homo sapiens) (UniProt Q86Z02); assay: Inhibition of HIPK1 at 10 uM assessed as residual activity by [33P]ATP radioactive filter binding assay relative to control
[21] = molecular target: Eukaryotic elongation factor 2 kinase (Homo sapiens) (UniProt O00418); assay: Inhibition of EF2K at 10 uM assessed as residual activity by [33P]ATP radioactive filter binding assay relative to control
[22] = Inhibition of CK2 at 10 uM assessed as residual activity by [33P]ATP radioactive filter binding assay relative to control
cells [23] = details: Mus musculus, BaF3, 96 h; remark: listed apart in the source
[24] = molecular target: Homeodomain-interacting protein kinase 3 (Homo sapiens) (UniProt Q9H422); assay: Inhibition of HIPK3 at 10 uM assessed as residual activity by [33P]ATP radioactive filter binding assay relative to control
[25] = molecular target: Mitogen-activated protein kinase 9 (Homo sapiens) (UniProt P45984); assay: Inhibition of JNK2 at 10 uM assessed as residual activity by [33P]ATP radioactive filter binding assay relative to control
Chain of Mitogen-activated protein kinase 9 (Homo sapiens) (P45984 whole entry, looked up): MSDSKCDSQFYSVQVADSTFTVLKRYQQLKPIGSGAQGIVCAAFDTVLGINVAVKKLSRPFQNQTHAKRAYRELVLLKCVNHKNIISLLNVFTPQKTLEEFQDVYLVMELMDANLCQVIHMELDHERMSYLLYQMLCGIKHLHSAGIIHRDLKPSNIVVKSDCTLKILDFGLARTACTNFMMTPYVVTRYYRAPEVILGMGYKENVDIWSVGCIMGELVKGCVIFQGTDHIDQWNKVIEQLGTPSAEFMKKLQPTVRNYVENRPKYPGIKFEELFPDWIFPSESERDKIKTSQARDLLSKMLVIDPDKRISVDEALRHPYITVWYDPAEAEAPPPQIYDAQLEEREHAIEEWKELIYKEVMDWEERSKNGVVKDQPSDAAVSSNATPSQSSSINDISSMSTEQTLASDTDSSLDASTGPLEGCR

[26] = molecular target: RAC-alpha serine/threonine-protein kinase (Homo sapiens) (UniProt P31749); assay: Inhibition of PKBalpha at 10 uM assessed as residual activity by [33P]ATP radioactive filter binding assay relative to control
[27] = molecular target: Aurora kinase B (Homo sapiens) (UniProt Q96GD4); assay: Inhibition of Aurora B at 10 uM assessed as residual activity by [33P]ATP radioactive filter binding assay relative to control
[28] = molecular target: Insulin receptor-related protein (Homo sapiens) (UniProt P14616); assay: Inhibition of IRR at 10 uM assessed as residual activity by [33P]ATP radioactive filter binding assay relative to control
Chain of Insulin receptor-related protein (Homo sapiens) (P14616 27-742 limits assumed): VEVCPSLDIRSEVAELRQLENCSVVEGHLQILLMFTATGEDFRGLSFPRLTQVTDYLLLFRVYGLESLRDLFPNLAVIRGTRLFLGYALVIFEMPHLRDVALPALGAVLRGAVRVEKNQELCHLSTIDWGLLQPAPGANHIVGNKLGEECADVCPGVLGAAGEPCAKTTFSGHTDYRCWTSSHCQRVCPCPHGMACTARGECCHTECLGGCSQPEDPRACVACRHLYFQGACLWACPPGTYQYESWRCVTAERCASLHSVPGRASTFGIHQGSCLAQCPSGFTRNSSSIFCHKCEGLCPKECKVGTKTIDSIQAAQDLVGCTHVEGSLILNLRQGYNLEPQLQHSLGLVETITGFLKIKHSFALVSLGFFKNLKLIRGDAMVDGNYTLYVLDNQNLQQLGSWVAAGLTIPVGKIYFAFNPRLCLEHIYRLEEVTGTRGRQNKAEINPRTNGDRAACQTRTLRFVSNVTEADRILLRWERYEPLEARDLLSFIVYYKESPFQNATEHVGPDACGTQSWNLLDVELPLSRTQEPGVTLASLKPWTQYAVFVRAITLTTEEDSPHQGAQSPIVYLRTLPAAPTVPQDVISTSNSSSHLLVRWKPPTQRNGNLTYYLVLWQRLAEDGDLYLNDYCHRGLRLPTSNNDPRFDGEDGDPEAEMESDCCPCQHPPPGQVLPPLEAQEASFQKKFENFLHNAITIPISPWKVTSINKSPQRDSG
Chain of Insulin receptor-related protein (Homo sapiens) (P14616 747-1297 limits assumed): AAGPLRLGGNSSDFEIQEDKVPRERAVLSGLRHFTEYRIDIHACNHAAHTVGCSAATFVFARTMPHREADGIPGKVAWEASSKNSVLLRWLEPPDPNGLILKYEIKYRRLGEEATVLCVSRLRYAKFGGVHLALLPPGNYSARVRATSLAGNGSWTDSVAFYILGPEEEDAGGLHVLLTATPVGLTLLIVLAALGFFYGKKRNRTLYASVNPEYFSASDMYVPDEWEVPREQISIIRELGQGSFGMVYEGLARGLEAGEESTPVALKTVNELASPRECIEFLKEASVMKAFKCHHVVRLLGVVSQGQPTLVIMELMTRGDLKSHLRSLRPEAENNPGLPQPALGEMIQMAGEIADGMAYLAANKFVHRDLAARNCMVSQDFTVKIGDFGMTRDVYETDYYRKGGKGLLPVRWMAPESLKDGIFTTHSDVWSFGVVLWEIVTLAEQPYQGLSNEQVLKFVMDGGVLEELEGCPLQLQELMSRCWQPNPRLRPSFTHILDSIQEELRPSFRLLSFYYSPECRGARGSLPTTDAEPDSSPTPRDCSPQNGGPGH

[29] = Inhibition of PKA at 10 uM assessed as residual activity by [33P]ATP radioactive filter binding assay relative to control
cells [30] = details: Mus musculus, BaF3, 96 h; remark: listed apart in the source
Description: Growth inhibition of mouse BA/F3 cells expressing EGFR Del5 and Thr790Met mutant after 96 hrs by cell titer-glo assay

[31] = molecular target: Tyrosine-protein kinase BTK (Homo sapiens) (UniProt Q06187); assay: Inhibition of BTK at 10 uM assessed as residual activity by [33P]ATP radioactive filter binding assay relative to control
[32] = molecular target: Tyrosine-protein kinase Lck (Homo sapiens) (UniProt P06239); assay: Inhibition of Lck at 10 uM assessed as residual activity by [33P]ATP radioactive filter binding assay relative to control
[33] = molecular target: Myosin light chain kinase, smooth muscle (Homo sapiens) (UniProt Q15746); assay: Inhibition of SmMLCK at 10 uM assessed as residual activity by [33P]ATP radioactive filter binding assay relative to control
cells [34] = details: Mus musculus, BaF3, 96 h; remark: listed apart in the source
Description: Growth inhibition of mouse BA/F3 cells expressing EGFR Del1 and Thr790Met mutant after 96 hrs by cell titer-glo assay

| Activity [2] [%] | Activity [3] [%] | Activity [4] [%] | Activity [5] [%] | Activity [6] [%] | Activity [7] [%] | Activity [8] [%] | Activity [9] [%] | Activity [10] [%] | Activity [11] [%] | Activity [12] [%] | Activity [13] [%] | Activity [14] [%] | Activity [15] [%] | Activity [16] [%] | Activity [17] [%] | Activity [18] [%] | Activity [19] [%] | Activity [20] [%] | Compound | GI50 (cells [1]) [nM] | further results |
| --- | --- | --- | --- | --- | --- | --- | --- | --- | --- | --- | --- | --- | --- | --- | --- | --- | --- | --- | --- | --- | --- |
| 10 | -10 | 36 | 89 | 52 | 83 | 36 | 62 | 26 | 79 | 74 | 85 | 70 | 30 | 82 | 36 | 82 | 75 | 103 | CN(C)CCCC(=O)Nc1ccc2nccc(Nc3cccc(Br)c3)c2c1 | > 500 | Activity [21]: 99%; Activity [22]: 90%; GI50 (cells [23]): < 500 nM; Activity [24]: 96%; Activity [25]: 50%; Activity [26]: 100%; Activity [27]: 33%; Activity [28]: 79%; Activity [29]: 86%; GI50 (cells [30]): > 500 nM; Activity [31]: 36%; Activity [32]: 1%; Activity [33]: 48%; GI50 (cells [34]): > 500 nM |
| 10 | -12 | 37 | 96 | 51 | 79 | 29 | 72 | 53 | 87 | 78 | 86 | 81 | 63 | 93 | 50 | 83 | 74 | 126 | CN(C)CCCC(=O)Nc1ccc2ncnc(Nc3cccc(Br)c3)c2c1 | > 5000 | Activity [21]: 91%; Activity [22]: 96%; GI50 (cells [23]): < 500 nM; Activity [24]: 106%; Activity [25]: 77%; Activity [26]: 103%; Activity [27]: 21%; Activity [28]: 70%; Activity [29]: 91%; GI50 (cells [30]): > 5000 nM; Activity [31]: 79%; Activity [32]: 3%; Activity [33]: 18%; GI50 (cells [34]): > 5000 nM |
